{"source": "paper PMC2982748", "about": "(Arteriosclerosis, thrombosis, and vascular biology, 2010)", "target": "P2Y12 (Homo sapiens, UniProt Q9H244)", "sequence (Q9H244 whole entry)": "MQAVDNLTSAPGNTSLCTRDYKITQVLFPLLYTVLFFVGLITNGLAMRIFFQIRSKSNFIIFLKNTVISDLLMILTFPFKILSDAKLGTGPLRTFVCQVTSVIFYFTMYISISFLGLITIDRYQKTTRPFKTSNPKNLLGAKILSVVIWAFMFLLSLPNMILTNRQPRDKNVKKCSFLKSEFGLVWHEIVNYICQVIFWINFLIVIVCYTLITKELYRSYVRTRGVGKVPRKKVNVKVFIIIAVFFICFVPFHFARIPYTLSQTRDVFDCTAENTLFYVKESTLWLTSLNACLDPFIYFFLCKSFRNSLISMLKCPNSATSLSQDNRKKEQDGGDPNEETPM", "assay": "β-arrestin recruitment", "assay_type": "cell-based", "data": [{"smiles": "Nc1ncnc2c1ncn2[C@@H]1O[C@H](COP(=O)(O)OP(=O)(O)O)[C@@H](O)[C@H]1O", "note": "[ADP]", "values": [{"measurement": "EC50", "result": 5000, "unit": "nM"}]}, {"smiles": "CCCCC/C=C\\C\\C=C/C=C/C=C/[C@@H](SC[C@H](N)C(=O)O)[C@@H](O)CCCC(=O)O", "note": "[LTE4]", "values": [{"measurement": "EC50", "result": 0.013, "unit": "nM"}]}]}
